Test results published in ChEMBL document CHEMBL5696442, “Discovery of type II inhibitors of TGFβ-activated kinase 1 (TAK1) and mitogen-activated protein kinase kinase kinase kinase 2 (MAP4K2)” (J Med Chem, 2015).
Active and inactive are the calls of the source. The calls are words filed in the database; no cut-off is given here.

Legend:
[1] = molecular target: T1, Serine/threonine-protein kinase ULK3 (Homo sapiens) (UniProt Q6PHR2); assay: Inhibition of ULK3 Lys2 labeling site in human Huh-7 cell lysate at 1 uM by KiNativ Profiling analysis relative to control; assay type: subcellular
T1 sequence (whole entry): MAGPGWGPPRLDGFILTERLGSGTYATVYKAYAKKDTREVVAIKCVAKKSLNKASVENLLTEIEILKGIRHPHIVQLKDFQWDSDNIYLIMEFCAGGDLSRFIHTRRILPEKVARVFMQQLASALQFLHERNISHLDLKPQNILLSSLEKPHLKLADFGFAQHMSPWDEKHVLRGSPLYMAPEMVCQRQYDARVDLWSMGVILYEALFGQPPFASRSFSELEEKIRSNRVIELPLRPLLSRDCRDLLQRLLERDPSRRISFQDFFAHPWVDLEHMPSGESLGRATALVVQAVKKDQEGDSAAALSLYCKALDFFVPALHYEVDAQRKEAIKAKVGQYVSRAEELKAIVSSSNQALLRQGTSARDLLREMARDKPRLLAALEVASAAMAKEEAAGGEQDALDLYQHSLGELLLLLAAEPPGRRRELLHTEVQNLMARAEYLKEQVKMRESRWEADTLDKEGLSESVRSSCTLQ

[2] = molecular target: Protein kinase C beta type (Homo sapiens) (UniProt P05771); assay: Inhibition of PKCb Lys2 labeling site in human Huh-7 cells at 1 uM by KiNativ Profiling analysis relative to control; assay type: cell-based
[3] = molecular target: Microtubule-associated serine/threonine-protein kinase 2 (Homo sapiens) (UniProt Q6P0Q8); assay: Inhibition of MAST2 Lys2 labeling site harbouring DLKPDNLLVTSMGHIK in human Huh-7 cells at 1 uM by KiNativ Profiling analysis relative to control; assay type: cell-based
Sequence of Microtubule-associated serine/threonine-protein kinase 2 (Homo sapiens) (Q6P0Q8 whole entry): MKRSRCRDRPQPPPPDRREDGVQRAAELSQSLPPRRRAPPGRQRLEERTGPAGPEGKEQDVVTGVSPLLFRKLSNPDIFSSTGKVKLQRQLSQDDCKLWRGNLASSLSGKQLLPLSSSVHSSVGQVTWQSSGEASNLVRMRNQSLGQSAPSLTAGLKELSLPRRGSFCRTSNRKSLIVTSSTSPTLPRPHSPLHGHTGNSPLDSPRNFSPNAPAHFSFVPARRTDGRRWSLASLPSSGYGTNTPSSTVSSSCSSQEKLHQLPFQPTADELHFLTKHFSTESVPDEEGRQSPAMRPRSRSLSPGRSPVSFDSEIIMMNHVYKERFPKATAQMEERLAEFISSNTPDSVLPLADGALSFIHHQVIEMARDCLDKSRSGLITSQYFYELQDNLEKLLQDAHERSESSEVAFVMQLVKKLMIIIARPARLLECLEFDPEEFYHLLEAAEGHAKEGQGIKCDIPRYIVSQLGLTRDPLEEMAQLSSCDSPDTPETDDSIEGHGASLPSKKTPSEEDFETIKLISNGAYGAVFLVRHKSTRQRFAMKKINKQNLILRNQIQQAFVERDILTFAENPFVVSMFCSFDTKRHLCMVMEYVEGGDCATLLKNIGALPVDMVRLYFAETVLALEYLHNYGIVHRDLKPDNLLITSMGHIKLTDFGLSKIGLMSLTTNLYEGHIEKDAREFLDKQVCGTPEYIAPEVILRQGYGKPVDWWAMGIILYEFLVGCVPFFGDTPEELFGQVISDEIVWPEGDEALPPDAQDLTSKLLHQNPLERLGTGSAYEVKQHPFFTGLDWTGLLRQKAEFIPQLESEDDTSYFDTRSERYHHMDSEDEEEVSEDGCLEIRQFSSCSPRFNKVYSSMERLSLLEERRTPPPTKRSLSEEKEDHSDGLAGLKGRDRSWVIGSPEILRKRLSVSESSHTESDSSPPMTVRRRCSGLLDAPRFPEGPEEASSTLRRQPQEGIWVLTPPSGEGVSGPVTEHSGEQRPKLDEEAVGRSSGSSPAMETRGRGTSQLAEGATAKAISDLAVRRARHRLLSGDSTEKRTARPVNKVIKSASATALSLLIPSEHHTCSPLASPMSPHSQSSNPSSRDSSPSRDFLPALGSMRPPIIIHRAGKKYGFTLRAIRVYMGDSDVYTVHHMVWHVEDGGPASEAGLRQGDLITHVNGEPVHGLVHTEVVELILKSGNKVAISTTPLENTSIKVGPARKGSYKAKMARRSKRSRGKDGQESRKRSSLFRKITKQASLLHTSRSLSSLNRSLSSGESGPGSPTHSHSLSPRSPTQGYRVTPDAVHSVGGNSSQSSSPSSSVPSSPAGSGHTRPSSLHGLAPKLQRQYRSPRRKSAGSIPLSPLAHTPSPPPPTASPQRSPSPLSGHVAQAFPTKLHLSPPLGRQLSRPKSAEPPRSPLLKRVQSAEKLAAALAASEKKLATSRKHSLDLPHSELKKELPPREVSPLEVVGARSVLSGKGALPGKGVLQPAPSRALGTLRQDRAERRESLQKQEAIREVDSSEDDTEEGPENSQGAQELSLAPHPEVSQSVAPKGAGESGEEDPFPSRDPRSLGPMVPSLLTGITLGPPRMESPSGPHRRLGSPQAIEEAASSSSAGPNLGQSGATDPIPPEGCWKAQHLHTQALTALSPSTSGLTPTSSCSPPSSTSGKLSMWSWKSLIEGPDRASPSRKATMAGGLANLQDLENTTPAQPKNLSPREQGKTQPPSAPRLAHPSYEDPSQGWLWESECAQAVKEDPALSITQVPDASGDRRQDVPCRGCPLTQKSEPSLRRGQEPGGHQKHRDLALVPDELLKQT

[4] = molecular target: Serine/threonine-protein kinase pim-2 (Homo sapiens) (UniProt Q9P1W9); assay: Inhibition of PIM2 (unknown origin) at 1 uM by Ambit Kinomescan binding assay relative to control; values are per cent of control
Sequence of Serine/threonine-protein kinase pim-2 (Homo sapiens) (Q9P1W9 whole entry, looked up): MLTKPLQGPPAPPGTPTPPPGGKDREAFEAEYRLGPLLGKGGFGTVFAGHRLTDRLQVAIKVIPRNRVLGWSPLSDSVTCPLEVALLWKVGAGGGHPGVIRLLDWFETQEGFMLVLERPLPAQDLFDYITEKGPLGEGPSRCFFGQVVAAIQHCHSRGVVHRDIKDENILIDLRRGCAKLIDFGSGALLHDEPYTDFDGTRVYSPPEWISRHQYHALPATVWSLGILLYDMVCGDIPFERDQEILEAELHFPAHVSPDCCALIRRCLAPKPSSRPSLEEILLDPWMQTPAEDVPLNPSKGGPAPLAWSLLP

[5] = molecular target: Serine/threonine-protein kinase MARK1 (Homo sapiens) (UniProt Q9P0L2); assay: Inhibition of MARK1 Lys2 labeling site in human A-375 cells at 0.5 uM by KiNativ Profiling analysis relative to control; assay type: cell-based
[6] = system: Proto-oncogene tyrosine-protein kinase receptor Ret (Homo sapiens), P07949 [M918T]; assay: Inhibition of RET M918T mutant (unknown origin) at 1 uM by Ambit Kinomescan binding assay relative to control; values are per cent of control
Sequence of Proto-oncogene tyrosine-protein kinase receptor Ret (Homo sapiens), P07949 [M918T] (P07949 whole entry M918T): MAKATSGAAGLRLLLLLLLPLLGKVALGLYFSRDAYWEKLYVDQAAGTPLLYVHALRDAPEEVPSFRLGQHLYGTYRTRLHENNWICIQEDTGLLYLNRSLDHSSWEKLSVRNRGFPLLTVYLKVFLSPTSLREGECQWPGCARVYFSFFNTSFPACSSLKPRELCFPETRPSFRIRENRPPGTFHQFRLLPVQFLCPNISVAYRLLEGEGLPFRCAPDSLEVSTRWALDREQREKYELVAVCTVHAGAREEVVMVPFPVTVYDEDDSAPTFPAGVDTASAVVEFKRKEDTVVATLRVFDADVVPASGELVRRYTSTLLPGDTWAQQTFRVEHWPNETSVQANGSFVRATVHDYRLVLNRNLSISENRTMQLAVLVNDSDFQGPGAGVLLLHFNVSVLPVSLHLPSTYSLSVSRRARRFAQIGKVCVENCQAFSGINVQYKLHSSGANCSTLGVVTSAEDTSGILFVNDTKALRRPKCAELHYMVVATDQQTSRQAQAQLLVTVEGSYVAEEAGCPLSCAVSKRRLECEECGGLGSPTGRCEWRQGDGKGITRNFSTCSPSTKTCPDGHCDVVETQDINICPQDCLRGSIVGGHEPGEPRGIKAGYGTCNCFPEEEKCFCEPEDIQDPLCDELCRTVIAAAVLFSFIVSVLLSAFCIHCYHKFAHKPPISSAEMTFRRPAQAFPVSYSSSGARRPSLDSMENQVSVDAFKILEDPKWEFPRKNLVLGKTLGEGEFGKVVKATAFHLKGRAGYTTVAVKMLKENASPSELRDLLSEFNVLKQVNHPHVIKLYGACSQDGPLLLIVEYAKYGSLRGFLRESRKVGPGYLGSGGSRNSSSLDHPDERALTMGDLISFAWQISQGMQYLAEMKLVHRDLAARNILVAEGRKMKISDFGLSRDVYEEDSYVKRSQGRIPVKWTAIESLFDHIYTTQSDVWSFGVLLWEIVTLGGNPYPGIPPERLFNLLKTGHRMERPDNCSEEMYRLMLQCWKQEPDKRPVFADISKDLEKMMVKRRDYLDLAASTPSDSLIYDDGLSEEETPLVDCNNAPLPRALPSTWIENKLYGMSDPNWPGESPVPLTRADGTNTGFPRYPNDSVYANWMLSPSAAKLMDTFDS

[7] = molecular target: Calcium/calmodulin-dependent protein kinase type II subunit gamma (Homo sapiens) (UniProt Q13555); assay: Inhibition of CaMK2g Lys1 labeling site harbouring TSTQEYAAKIINTK in human A-375 cells at 0.05 uM by KiNativ Profiling analysis relative to control; assay type: cell-based
[8] = molecular target: T2, Ephrin type-B receptor 2 (Homo sapiens) (UniProt P29323); assay: Inhibition of EPHB2 (unknown origin) at 1 uM by Ambit Kinomescan binding assay relative to control
T2 sequence (whole entry): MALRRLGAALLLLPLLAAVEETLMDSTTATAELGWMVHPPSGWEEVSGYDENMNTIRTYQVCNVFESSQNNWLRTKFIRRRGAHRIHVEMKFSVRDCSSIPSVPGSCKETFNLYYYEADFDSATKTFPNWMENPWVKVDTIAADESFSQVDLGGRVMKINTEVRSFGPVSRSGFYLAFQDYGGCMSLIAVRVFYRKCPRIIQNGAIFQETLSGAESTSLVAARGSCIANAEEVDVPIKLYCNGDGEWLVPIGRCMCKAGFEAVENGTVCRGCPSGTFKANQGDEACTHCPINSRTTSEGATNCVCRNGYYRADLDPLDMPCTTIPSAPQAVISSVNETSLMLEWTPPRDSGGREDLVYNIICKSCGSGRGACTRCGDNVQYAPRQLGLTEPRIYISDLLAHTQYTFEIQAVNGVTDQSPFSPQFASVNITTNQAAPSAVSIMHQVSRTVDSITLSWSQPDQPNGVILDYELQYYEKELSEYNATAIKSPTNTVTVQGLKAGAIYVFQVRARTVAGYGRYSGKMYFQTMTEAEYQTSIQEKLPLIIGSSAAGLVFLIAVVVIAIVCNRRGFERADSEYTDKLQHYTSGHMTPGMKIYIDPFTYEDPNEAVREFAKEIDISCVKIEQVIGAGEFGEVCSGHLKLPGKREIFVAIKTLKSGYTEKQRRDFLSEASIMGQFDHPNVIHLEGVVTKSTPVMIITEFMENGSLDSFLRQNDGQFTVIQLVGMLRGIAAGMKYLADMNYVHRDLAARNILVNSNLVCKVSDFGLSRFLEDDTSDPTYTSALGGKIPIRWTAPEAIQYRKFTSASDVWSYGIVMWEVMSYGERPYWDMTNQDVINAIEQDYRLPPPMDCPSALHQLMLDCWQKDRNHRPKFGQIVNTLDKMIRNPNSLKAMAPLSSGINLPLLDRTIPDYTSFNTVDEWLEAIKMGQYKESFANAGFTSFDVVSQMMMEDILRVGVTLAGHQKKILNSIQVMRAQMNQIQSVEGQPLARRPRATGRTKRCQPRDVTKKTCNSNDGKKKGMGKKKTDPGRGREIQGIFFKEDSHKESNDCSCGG

[9] = molecular target: Dual specificity tyrosine-phosphorylation-regulated kinase 1A (Homo sapiens) (UniProt Q13627); assay: Inhibition of DYRK1A (unknown origin) at 1 uM by Ambit Kinomescan binding assay relative to control; values are per cent of control
[10] = molecular target: Insulin-like growth factor 1 receptor (Homo sapiens) (UniProt P08069); assay: Inhibition of IGF1R (unknown origin) at 1 uM by Ambit Kinomescan binding assay relative to control; values are per cent of control
[11] = molecular target: Cyclin-dependent kinase 11B (Homo sapiens) (UniProt P21127); assay: Inhibition of CDK11 Lys2 labeling site in human A-375 cells at 0.5 uM by KiNativ Profiling analysis relative to control; assay type: cell-based
Sequence of Cyclin-dependent kinase 11B (Homo sapiens) (P21127 whole entry): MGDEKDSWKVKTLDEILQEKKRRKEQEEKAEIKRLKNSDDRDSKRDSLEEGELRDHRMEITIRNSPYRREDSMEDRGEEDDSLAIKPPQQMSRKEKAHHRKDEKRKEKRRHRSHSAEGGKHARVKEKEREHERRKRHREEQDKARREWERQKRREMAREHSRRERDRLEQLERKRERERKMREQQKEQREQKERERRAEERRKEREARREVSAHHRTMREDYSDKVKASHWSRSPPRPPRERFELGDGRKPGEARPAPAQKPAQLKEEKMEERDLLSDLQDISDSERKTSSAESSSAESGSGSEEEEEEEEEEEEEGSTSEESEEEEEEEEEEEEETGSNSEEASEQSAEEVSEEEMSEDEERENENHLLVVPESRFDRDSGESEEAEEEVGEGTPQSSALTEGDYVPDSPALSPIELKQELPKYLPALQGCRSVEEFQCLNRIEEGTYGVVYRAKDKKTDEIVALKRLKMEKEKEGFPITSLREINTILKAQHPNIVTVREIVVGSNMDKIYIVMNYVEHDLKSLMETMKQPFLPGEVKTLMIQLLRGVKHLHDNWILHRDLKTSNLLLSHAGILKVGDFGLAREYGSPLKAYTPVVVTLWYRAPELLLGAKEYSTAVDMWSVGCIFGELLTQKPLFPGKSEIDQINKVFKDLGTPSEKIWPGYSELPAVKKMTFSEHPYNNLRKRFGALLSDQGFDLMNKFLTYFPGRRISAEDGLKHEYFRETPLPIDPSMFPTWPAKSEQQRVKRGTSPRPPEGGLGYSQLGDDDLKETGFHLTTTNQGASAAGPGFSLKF

[12] = molecular target: Mitogen-activated protein kinase kinase kinase 4 (Homo sapiens) (UniProt Q9Y6R4); assay: Inhibition of MAP3K4 (unknown origin) at 10 uM by Ambit Kinomescan binding assay
[13] = molecular target: Serine/threonine-protein kinase PAK 1 (Homo sapiens) (UniProt Q13153); assay: Inhibition of PAK1 (unknown origin) at 10 uM by Ambit Kinomescan binding assay
Sequence of Serine/threonine-protein kinase PAK 1 (Homo sapiens) (Q13153 whole entry, looked up): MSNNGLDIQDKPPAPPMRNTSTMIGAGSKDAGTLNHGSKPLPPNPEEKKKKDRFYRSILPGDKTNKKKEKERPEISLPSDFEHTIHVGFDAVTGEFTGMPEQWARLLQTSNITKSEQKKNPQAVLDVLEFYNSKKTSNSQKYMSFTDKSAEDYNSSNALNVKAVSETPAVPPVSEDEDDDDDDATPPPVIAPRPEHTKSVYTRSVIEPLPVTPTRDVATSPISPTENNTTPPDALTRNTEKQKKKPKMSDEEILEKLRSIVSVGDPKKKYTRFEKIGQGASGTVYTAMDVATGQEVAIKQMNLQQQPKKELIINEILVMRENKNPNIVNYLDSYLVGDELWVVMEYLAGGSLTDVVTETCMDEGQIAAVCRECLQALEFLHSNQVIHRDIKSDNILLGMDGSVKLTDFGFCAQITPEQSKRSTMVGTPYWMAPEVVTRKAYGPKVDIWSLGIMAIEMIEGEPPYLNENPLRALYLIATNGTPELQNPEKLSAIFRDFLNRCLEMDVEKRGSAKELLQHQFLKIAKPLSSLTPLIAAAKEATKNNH

[14] = molecular target: Activin receptor type-1-like (Homo sapiens) (UniProt P37023); assay: Inhibition of ACVRL1 (unknown origin) at 10 uM by Ambit Kinomescan binding assay
Sequence of Activin receptor type-1-like (Homo sapiens) (P37023 whole entry): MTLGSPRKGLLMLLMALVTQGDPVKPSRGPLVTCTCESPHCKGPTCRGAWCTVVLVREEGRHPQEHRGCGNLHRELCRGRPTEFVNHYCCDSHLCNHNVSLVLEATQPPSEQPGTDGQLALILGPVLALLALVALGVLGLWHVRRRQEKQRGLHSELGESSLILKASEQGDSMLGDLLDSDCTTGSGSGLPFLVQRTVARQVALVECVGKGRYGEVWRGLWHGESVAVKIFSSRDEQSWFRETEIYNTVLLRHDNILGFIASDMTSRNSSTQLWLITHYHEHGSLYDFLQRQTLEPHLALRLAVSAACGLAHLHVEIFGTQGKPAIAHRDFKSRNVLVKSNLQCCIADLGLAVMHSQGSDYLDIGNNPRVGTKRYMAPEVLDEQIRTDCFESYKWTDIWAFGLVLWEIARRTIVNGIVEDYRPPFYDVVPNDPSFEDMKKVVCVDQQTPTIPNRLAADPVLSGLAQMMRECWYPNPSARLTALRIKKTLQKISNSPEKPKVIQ

[15] = molecular target: cAMP-dependent protein kinase catalytic subunit beta (Homo sapiens) (UniProt P22694); assay: Inhibition of PKAC beta (unknown origin) at 10 uM by Ambit Kinomescan binding assay relative to control

`CNc1cc(Oc2cc(C(=O)Nc3cc(N4CCN(C)CC4)cc(C(F)(F)F)c3)ccc2C)ncn1` gave an inhibition [1] of 2.3%, an inhibition [2] of 64.8% and an inhibition [3] of 30.2%.

`CCN1CCN(Cc2ccc(NC(=O)c3ccc(C)c(/C=C/c4cnc5[nH]ccc5c4OC)c3)cc2C(F)(F)F)CC1` showed a residual activity [4] of 100%, an inhibition [5] of 2.2% and a % of control [6] of 0.05%. For the same compound, the inhibition [7] was 26.3%, the inhibition [8] was 5.8% and the residual activity [9] was 100%. The residual activity [10] was 100%.

In the case of `CCN1CCN(Cc2ccc(NC(=O)c3ccc(C)c(Oc4ccnc5[nH]ccc45)c3)cc2C(F)(F)F)CC1`, the inhibition [11] is reported as 51.2%, the inhibition [12] is reported as “inactive” and the inhibition [13] is reported as “inactive”. The inhibition [14] was “inactive” and the inhibition [15] was 14%.
